Measurements from ChEMBL document CHEMBL1201862, “PubChem BioAssay data set” (2004).
Activity calls are given as the source filed them.

What was measured:
Beta-lactamase [1] = molecular target: Beta-lactamase (Salmonella choleraesuis (strain SC-B67), UniProt Q5J463)
[2] = molecular target: ATP-dependent molecular chaperone HSP82 (Candida albicans (strain WO-1) (Yeast), UniProt C4YTQ8); assay: loss of DOC-induced GRE-beta-galactosidase reporter signal, dose response, Hsp90 inhibitor project, S. cerevisiae, luminescence (AID 2400); assay type: functional, cell-based;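 note: beta-galactosidase luminescence from glucocorticoid response element reporter as proxy for Hsp90 function; inhibitor potency where signal loss means Hsp90 inhibition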
[3] = NIH-3T3 fibroblast cytotoxicity, dose response, cytotoxicity control, cell-based, fluorescence, Alamar Blue, secondary assay (AID 2327); assay type: functional;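 note: NIH-3T3 mouse fibroblasts cultured with fluconazole at 8 µg/mL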
[4] = molecular target: T1, Microphthalmia-associated transcription factor (Homo sapiens, UniProt O75030); assay: TRPM1 promoter luciferase signal decrease, dose response, MITF inhibitor project, cell-based, SK-MEL-5, cherry-picked, set 3 (AID 493073); assay type: functional
T1 sequence (O75030 whole entry): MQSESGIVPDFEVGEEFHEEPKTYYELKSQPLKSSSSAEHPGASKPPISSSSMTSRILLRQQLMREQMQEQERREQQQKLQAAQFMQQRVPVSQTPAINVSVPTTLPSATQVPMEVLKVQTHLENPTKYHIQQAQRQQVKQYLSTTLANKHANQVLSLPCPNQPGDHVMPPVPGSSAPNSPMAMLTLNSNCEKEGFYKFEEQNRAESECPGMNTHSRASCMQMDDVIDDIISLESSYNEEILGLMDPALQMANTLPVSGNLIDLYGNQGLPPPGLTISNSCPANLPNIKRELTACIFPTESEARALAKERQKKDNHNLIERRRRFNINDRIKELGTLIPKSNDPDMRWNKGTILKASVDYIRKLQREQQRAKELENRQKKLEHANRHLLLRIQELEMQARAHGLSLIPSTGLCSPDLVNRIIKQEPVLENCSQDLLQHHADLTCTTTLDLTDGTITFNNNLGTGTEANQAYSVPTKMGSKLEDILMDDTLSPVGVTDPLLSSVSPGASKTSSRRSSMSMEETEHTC

Beta-lactamase [5] = molecular target: Beta-lactamase (Pseudomonas aeruginosa, UniProt Q79MP6);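 note: biochemical dose-response test of metallo-beta-lactamase enzyme inhibition, read out by epi-absorbance; purified recombinant IMP-1 metallo-beta-lactamase with nitrocefin as substrate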
[6] = C. albicans growth with fluconazole, confirmation, fluorescence, retest (AID 2467); assay type: functional, cell-based
[7] = molecular target: Serine/threonine-protein phosphatase (Candida dubliniensis (strain CD36 / CBS 7987 / NCPF 3949 / NRRLY-17841) (Yeast), UniProt B9W6M3); assay: calcineurin pathway inhibitors in yeast reporter, dose response, S. cerevisiae, CDRE-lacZ, luminescence, secondary (AID 2388); assay type: functional, cell-based;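 note: yeast reporter cells carrying a calcineurin-responsive lacZ construct stimulated with calcium chloride; luminescent beta-galactosidase reporter signal in whole cells rather than isolated phosphatase activity; potency for inhibition where a drop in reporter signal means calcineurin blockade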
[8] = molecular target: T2, Sentrin-specific protease 7 (Homo sapiens, UniProt Q9BQF6); assay: SENP7 protease inhibitors, SAR follow-up, biochemical, luminescence (AID 504497); assay type: functional
T2 sequence (Q9BQF6 whole entry): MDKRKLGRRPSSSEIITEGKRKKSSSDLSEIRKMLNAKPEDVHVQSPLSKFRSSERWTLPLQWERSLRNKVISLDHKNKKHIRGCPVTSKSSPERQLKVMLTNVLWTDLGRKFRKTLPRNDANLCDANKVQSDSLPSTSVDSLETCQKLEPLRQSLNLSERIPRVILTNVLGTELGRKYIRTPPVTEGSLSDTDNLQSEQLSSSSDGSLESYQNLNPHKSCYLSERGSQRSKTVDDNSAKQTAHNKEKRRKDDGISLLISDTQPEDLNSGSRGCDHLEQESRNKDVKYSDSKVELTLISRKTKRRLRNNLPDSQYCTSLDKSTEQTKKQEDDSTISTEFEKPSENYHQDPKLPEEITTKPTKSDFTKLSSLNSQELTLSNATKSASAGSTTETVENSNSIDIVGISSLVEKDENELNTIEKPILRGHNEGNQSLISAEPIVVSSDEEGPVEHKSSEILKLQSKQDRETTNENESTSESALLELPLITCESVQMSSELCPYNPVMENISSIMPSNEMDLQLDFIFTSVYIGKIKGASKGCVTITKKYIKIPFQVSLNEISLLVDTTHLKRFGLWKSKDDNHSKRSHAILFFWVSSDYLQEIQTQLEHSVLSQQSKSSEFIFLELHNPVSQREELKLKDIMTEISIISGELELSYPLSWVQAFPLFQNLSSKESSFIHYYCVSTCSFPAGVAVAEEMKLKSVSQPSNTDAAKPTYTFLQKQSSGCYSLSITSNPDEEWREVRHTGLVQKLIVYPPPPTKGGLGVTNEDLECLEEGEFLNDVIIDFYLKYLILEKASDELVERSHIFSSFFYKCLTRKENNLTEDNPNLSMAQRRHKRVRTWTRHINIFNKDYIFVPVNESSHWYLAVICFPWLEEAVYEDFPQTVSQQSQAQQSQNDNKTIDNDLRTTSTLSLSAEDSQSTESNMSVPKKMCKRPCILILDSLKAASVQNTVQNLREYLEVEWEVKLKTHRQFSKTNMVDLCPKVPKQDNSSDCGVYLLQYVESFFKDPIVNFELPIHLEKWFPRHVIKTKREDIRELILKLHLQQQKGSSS

[9] = molecular target: T3, Sentrin-specific protease 6 (Homo sapiens, UniProt Q9GZR1); assay: SAR Analysis of small molecule inhibitors of Sentrin-specific protease 6 (SENP6) using a Luminescent assay. [Related pubchem assays (depositor defined):AID2582, AID2599]; assay type: functional
T3 sequence (Q9GZR1 whole entry): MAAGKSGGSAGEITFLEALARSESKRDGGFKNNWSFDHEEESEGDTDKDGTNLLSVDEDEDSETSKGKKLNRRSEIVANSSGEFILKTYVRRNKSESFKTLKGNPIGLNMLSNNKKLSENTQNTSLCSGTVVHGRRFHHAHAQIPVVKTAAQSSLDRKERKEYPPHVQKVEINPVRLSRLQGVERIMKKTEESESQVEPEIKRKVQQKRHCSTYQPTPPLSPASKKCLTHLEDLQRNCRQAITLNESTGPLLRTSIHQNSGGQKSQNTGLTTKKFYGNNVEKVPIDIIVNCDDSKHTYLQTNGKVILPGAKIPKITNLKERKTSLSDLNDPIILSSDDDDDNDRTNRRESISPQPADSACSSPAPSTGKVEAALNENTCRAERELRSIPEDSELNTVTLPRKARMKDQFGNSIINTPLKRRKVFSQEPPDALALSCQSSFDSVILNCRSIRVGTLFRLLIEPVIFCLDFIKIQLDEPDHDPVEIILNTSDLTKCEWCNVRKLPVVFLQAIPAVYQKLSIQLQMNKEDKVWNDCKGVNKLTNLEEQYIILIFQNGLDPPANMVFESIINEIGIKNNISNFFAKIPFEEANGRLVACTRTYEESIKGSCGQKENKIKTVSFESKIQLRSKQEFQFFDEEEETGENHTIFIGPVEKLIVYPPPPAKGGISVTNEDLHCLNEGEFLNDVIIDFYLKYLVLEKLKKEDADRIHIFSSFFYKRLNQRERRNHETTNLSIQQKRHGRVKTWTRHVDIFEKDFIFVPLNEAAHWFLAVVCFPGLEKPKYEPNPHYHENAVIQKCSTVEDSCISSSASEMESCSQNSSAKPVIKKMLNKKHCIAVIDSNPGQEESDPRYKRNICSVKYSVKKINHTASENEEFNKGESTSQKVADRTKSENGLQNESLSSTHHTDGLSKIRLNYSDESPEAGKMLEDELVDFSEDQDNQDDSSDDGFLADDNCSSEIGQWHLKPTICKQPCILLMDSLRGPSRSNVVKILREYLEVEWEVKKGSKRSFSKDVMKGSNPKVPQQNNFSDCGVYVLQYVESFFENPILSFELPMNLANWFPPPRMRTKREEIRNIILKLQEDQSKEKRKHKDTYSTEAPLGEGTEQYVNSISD

[10] = molecular target: T4, Sentrin-specific protease 8 (Homo sapiens, UniProt Q96LD8); assay: SENP8 protease inhibitors, SAR follow-up, biochemical, luminescence (AID 504501); assay type: functional
T4 sequence (Q96LD8 whole entry): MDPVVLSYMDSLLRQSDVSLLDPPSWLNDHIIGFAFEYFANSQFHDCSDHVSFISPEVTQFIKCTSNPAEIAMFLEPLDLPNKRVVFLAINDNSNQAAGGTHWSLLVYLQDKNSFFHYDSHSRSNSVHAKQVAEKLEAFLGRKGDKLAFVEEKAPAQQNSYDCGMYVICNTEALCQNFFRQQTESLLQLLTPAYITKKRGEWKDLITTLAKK

Caspase-3 = molecular target: T5, Caspase-3 (Homo sapiens, UniProt P42574); assay: SAR Analysis of small molecule inhibitors of Sentrin-specific proteases (SENPs) using a Caspase-3 Selectivity assay. [Related pubchem assays (depositor defined):AID2540, AID2599, AID434973, AID489001]; assay type: functional
T5 sequence (P42574 whole entry): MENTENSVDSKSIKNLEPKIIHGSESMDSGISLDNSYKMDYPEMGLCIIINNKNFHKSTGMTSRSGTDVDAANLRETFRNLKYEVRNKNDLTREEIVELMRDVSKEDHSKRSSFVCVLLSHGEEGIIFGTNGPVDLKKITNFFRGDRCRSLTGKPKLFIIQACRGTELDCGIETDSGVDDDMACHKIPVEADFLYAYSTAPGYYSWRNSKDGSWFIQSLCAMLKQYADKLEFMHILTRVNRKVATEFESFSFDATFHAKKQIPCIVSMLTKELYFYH

[11] = molecular target: T6, COUP transcription factor 2 (Homo sapiens, UniProt P24468); assay: Luminescence-based cell-based high throughput dose response assay to identify inhibitors of COUP-TFII (NR2F2).; assay type: functional;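 note: HEK293 cells transiently cotransfected with COUP-TFII expression vector and reporter; luciferase reporter luminescence driven by COUP-TFII from the pX2-168 reporter plasmid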
T6 sequence (P24468 whole entry): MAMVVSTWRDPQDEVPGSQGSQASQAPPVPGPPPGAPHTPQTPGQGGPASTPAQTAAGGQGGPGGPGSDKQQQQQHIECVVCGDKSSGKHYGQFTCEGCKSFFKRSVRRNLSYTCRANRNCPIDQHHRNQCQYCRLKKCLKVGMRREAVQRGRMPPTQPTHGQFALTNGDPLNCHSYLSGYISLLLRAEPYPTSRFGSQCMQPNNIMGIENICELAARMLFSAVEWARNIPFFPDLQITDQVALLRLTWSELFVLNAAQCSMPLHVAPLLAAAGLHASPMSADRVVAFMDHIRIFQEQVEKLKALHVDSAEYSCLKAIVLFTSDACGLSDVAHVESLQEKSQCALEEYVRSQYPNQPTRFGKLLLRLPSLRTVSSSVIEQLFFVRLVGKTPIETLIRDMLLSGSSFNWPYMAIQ

Jurkat = assay: antigen receptor-induced NF-kB inhibitors, dose response, Jurkat, luciferase reporter, luminescence, B- and T-cell (AID 489004); assay type: functional, cell-based; details: Homo sapiens;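 note: NF-kB luciferase reporter Jurkat cells stimulated with PMA plus ionomycin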
[12] = molecular target: T7, DNA repair protein RAD52 homolog (Homo sapiens, UniProt P43351); assay type: functional, biochemical
T7 sequence (P43351 whole entry): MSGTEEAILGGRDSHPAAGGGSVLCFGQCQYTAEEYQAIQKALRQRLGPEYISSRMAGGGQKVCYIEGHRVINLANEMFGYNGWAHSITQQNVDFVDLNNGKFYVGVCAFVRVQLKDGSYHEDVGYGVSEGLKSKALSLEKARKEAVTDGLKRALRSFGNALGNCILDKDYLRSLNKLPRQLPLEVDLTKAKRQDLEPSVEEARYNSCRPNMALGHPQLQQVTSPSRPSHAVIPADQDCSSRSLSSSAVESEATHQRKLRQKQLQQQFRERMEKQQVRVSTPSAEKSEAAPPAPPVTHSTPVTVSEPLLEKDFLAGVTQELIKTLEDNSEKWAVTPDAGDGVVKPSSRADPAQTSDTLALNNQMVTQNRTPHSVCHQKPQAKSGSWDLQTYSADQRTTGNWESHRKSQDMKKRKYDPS

[13] = cytotoxicity in HEK-293T NF-kB-Luc cells, dose response, cytotoxicity control for B/T-cell NF-kB inhibitor project, cell-based, uHTS hits (AID 489019); assay type: functional;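 note: IC50 reflects cytotoxicity as loss of cell viability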
[14] = cytotoxicity toward NIH3T3 fibroblasts, dose response, counter-screen, cell-based, ATP luminescence, mouse fibroblasts (AID 2010); assay type: functional;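 note: cells exposed to compound for about 90 hours before reading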
[15] = inhibitors of intracellular T. cruzi replication, confirmation, NIH3T3 host cells, beta-gal luminescence (AID 2044); assay type: functional, cell-based;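 note: intracellular parasites grown in NIH/3T3 mouse fibroblasts as host cells; luminescent beta-galactosidase reporter signal from transgenic T. cruzi replicating inside host cells; inhibitors lower the luminescence signal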

Sequence of ATP-dependent molecular chaperone HSP82 (C4YTQ8 whole entry): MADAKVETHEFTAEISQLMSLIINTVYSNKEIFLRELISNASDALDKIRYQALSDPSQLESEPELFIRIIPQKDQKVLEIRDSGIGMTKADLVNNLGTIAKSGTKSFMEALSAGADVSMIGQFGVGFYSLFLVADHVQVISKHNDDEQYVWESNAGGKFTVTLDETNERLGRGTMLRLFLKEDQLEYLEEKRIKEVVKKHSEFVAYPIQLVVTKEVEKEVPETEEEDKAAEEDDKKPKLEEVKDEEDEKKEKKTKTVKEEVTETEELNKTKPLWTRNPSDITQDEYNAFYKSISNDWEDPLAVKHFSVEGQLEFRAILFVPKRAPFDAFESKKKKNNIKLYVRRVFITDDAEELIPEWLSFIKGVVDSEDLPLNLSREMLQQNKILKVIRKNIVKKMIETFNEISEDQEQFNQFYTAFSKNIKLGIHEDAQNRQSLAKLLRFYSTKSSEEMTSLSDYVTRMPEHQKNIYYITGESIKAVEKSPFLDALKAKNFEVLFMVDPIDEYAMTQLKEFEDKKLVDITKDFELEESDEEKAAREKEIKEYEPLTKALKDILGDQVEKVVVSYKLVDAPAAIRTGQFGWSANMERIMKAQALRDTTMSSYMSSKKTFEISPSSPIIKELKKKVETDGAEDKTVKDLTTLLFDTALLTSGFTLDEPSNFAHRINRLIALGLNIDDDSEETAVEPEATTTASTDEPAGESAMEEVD
Sequence of Serine/threonine-protein phosphatase (B9W6M3 whole entry): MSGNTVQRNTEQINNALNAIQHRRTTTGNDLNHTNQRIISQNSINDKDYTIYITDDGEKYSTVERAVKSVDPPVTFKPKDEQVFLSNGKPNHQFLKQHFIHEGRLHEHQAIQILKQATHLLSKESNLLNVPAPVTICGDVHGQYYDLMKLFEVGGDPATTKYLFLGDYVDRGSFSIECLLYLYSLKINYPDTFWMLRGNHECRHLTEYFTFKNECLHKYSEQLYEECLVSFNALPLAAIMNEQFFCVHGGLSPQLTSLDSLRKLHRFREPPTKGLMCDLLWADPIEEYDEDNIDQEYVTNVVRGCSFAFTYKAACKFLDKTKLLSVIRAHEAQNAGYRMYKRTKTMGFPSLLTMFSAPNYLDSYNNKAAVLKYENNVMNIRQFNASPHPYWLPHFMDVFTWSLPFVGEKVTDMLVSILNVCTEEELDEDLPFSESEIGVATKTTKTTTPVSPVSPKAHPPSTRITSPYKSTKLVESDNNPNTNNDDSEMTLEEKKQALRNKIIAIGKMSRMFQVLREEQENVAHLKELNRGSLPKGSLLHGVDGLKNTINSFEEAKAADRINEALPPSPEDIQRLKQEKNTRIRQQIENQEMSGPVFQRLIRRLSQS
Sequence of Beta-lactamase (Salmonella choleraesuis (strain SC-B67), UniProt Q5J463) (Q5J463 whole entry): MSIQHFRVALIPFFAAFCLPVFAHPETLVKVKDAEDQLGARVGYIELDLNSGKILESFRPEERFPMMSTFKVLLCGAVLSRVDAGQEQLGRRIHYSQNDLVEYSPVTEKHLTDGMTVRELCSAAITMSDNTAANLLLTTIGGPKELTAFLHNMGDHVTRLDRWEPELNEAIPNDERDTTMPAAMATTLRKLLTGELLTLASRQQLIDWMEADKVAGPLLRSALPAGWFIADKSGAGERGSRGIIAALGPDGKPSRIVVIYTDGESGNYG
Sequence of Beta-lactamase (Pseudomonas aeruginosa, UniProt Q79MP6) (Q79MP6 whole entry): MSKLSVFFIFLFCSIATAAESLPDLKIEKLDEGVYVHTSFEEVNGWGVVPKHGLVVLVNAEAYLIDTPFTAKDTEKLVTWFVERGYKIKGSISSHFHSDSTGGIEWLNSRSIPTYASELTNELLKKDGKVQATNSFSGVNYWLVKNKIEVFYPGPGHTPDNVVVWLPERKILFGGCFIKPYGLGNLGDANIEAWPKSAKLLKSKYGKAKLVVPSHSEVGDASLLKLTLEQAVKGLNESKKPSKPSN

CC(C)n1cc(/C=C/c2cc[n+](C)cc2)c2ccccc21
inconclusive: EC50 [3] 130 µM
active: AC50 [4] 8.14 µM | EC50 [6] 0.634 µM
inactive: IC50 (Beta-lactamase [1]) 40.1 µM | EC50 [2] > 150 µM | IC50 (Beta-lactamase [5]) 41.8 µM | EC50 [7] > 180 µM

Oc1ccc(Br)cc1/C=N/Nc1cc(N2CCCC2)nc(N2CCCC2)n1
inactive: IC50 [8] > 99 µM | IC50 [9] > 99 µM | IC50 [10] > 99 µM | IC50 (Caspase-3) > 99 µM

CC[n+]1c(C=C2C=C(C)OC(C)=C2)sc2ccccc21
inactive: IC50 [13] > 80 µM
> 60 µM (not active): EC50 [14]
active: EC50 [2] 55.9 µM | EC50 (cells) 0.006 µM | IC50 [11] 4.51 µM | EC50 [3] 126 µM | IC50 (Jurkat) 3.99 µM | AC50 [12] 8.17 µM | EC50 [6] 0.239 µM | EC50 [7] 29.6 µM | EC50 [15] < 0.1 µM
